Source: paper PMC3131604, “The Inhibitory Effect of Non-Steroidal Anti-Inflammatory Drugs (NSAIDs) on the Monophenolase and Diphenolase Activities of Mushroom Tyrosinase” (International Journal of Molecular Sciences, 2011)
Like-named read-outs stand apart in the source and are kept apart here.

Legend:
B16F1 melanoma cells = conditions: cited from earlier work
mushroom tyrosinase [1] = target: T1, mushroom tyrosinase (Agaricus bisporus, UniProt C7FF04); assay: diphenolase activity assay of mushroom tyrosinase (L-DOPA as substrate); type: biochemical; conditions: for KIS, diphenolase: Lineweaver-Burk / secondary plots; for Inhibition type, diphenolase activity: Lineweaver-Burk plots; for activity at 50 µM: at 0.05 mM; for activity at 50 µM / activity at 100 µM / activity at 200 µM / activity at 500 µM / activity at 1000 µM: read-out: diphenolase activity in presence of inhibitor; for activity at 100 µM: at 0.1 mM; for activity at 500 µM: at 0.5 mM; for activity at 1000 µM: at 1.0 mM
Experimental: The diphenolase activity assay was performed as previously described. First, 300 μL of 2.5 mM 3,4-dihydroxyphenylalanine (L-DOPA) solution, 50 μL of DMSO with or without a sample chemical, and 1.1 mL of 0.1 M phosphate buffer (pH 6.8) were mixed. The mixture was preincubated at 25 °C for 10 min before 50 μL of 1000 units/mL mushroom tyrosinase in aqueous solution was added, and the reaction was monitored at 475 nm. A control reaction was conducted in DMSO alone. The percentage of activity of tyrosinase was calculated as follows: 100 − [(A − B)/A × 100], where A represents the difference in the absorbance of the control sample between an incubation time of 0.5 and 1.0 min, and B represents the difference in the absorbance of the test sample over the same incubation period.
(§1) The inhibition type of NSAIDs on the monophenolase and diphenolase activity was determined by the Lineweaver-Burk plots and the inhibition constants were determined from secondary plots of the apparent Km/Vmax versus the concentration of the inhibitor.

mushroom tyrosinase [2] = target: T1, mushroom tyrosinase; assay: monophenolase activity assay of mushroom tyrosinase (L-tyrosine as substrate); type: biochemical; conditions: for effect on lag time of monophenolase activity: 0.25-1.0 mM inhibitor; for Inhibition type, monophenolase activity: Lineweaver-Burk plots; for activity at 250 µM: at 0.25 mM; for activity at 250 µM / activity at 500 µM / activity at 750 µM / activity at 1000 µM: read-out: monophenolase activity (steady-state rate) in presence of inhibitor; for activity at 500 µM: at 0.5 mM; for activity at 750 µM: at 0.75 mM; for activity at 1000 µM: at 1.0 mM; for KIS (inhibitor binding with the enzyme-substrate complex), monophenolase: secondary plot of Lineweaver-Burk slopes
Experimental: The monophenolase activity assay was performed with modification as reported by Chen et al.. In this assay, L-tyrosine was used as substrate in the monophenolase activity assay. First, 300 μL of 2.5 mM L-tyrosine, 25 μL of DMSO with or without a sample chemical, and 300 μL of 0.1 M phosphate buffer (pH 6.8) were mixed. The mixture was preincubated at 37 °C for 10 min before 125 μL of 1000 units/mL mushroom tyrosinase in aqueous solution added, and the reaction was performed at 37 °C. Enzyme activity was monitored at 475 nm by a UV spectrophotometer (Shimadzu, UV-1700). The lag time was determined by extrapolation of the linear portion of the dopachrome accumulation curve to the abscissa axis.
as §1

T1 sequence (C7FF04 1-392): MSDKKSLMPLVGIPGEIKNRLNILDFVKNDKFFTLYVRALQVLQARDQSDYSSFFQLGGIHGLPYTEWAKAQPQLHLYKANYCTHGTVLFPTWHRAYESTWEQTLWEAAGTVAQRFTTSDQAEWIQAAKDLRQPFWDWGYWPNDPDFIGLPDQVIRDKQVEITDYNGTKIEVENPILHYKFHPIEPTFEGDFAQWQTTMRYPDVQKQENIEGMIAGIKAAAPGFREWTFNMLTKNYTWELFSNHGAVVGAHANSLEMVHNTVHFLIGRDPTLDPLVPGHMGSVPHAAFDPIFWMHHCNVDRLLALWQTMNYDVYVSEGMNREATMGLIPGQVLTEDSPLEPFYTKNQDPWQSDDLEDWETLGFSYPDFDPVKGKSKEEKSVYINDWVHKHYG
T1 sequence (G1K3P4 1-150 partner): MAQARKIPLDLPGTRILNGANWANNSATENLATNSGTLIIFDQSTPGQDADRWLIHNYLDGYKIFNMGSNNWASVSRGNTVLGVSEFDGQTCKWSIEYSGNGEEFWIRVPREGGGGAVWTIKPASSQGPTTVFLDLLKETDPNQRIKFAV

Compound	inhibition of diphenolase activity (in words) (mushroom tyrosinase [1]; L-DOPA substrate)	effect on melanogenesis (B16F1 melanoma cells)	effect on lag time of monophenolase activity (mushroom tyrosinase [2])	Inhibition type, monophenolase activity (mushroom tyrosinase [2])	activity at 250 µM (mushroom tyrosinase [2]) [%]	activity at 500 µM (mushroom tyrosinase [2]) [%]	activity at 750 µM (mushroom tyrosinase [2]) [%]	activity at 1000 µM (mushroom tyrosinase [2]) [%]	KIS (inhibitor binding with the enzyme-substrate complex), monophenolase (mushroom tyrosinase [2]) [mM]	KIS, diphenolase (mushroom tyrosinase [1]) [mM]	Inhibition type, diphenolase activity (mushroom tyrosinase [1])	activity at 50 µM (mushroom tyrosinase [1]) [%]	activity at 100 µM (mushroom tyrosinase [1]) [%]	activity at 200 µM (mushroom tyrosinase [1]; at 0.2 mM) [%]	activity at 500 µM (mushroom tyrosinase [1]) [%]	activity at 1000 µM (mushroom tyrosinase [1]) [%]	other results
CC(=O)Oc1ccccc1C(=O)O [Acetylsalicylic acid, acetylsalicylic acid]	did not inhibit	–	–	–	–	–	–	–	–	–	–	–	–	–	–	–	effect on melanogenesis (B16F1 melanoma cells; B16F1 melanoma cells ref 23): inhibits melanogenesis; effect on tyrosinase protein expression (B16F1 melanoma cells; B16F1 melanoma cells ref 23): down-regulates; inhibition at 4000 µM (mushroom tyrosinase [1]; at 4 mM): -6%
O=C(O)Cc1ccccc1Nc1c(Cl)cccc1Cl [Diclofenac, diclofenac]	–	inhibit melanogenesis	–	–	–	–	–	–	–	–	–	–	–	–	–	–	inhibition at 4000 µM (mushroom tyrosinase [2]; at 4 mM): 25%
O=C(O)c1cc(-c2ccc(F)cc2F)ccc1O [Diflunisal, diflunisal]	–	–	extended	Non-competitive	~45	~34	~27	~20	0.11	0.19	Non-competitive	~77	~63	~49	~32	~20	–
CC(C)Cc1ccc(C(C)C(=O)O)cc1 (stereo not shown) [Ibuprofen, ibuprofen]	did not inhibit	–	–	–	–	–	–	–	–	–	–	–	–	–	–	–	inhibition at 1000 µM (mushroom tyrosinase [1]; at 1 mM): 8%
COc1ccc2c(c1)c(CC(=O)O)c(C)n2C(=O)c1ccc(Cl)cc1 [Indomethacin, indomethacin]	–	–	did not change	Non-competitive	~84	~72	~66	~60	0.75	2.42	Non-competitive	~89	~82	~70	~50	~32	IC50 of monophenolase activity relative to diphenolase activity (mushroom tyrosinase [2]; ratio of IC50 values): about three times larger
Cc1cccc(Nc2ccccc2C(=O)O)c1C [Mefenamic acid, mefenamic acid]	–	inhibit melanogenesis	–	–	–	–	–	–	–	–	–	–	–	–	–	–	inhibition at 1000 µM (mushroom tyrosinase [2]; at 1 mM): 9%; inhibition of diphenolase activity (in words) (mushroom tyrosinase [1]; at 0.2 mM): slightly inhibited
